The subject of this data set is rodent lifetime carcinogenesis bioassay, tumor incidence TD50. Kind of data set: chronic cancer bioassays in animals – CPDB, compiled studies (AID 1745844).

The structures appear in SMILES notation. The source made the active and inactive calls. No rule for the calls is given here.

In the case of `CC1=CC(=C(c2ccc(N)cc2)c2ccc(N)cc2)C=CC1=N`, the carcinogen call by setting is: (hamster, strain Syrian Golden, females, by gavage, site: any site (literature study), lesion: several types, types named in the paper, dosed 68 weeks, study length 68 weeks) “negative (inactive)”; (hamster, strain Syrian Golden, males, by gavage, site: any site (literature study), lesion: several types, types named in the paper, dosed 84 weeks, study length 84 weeks) “negative (inactive)”; (rat, strain Sprague-Dawley, females, by gavage, site: any site (literature study), lesion: several types, types named in the paper, dosed 107 weeks, study length 107 weeks) “negative (inactive)”; (rat, strain Sprague-Dawley, males, by gavage, site: any site (literature study), lesion: several types, types named in the paper, dosed 111 weeks, study length 111 weeks) “negative (inactive)”. Further, the TD50 (hamster, strain Syrian Golden, males, by gavage, site: lung, lesion: bronchiolar adenoma, dosed 84 weeks, study length 84 weeks) is 2020 mg/kg/day (inactive).

In the case of `CCCN(CCC)N=O`, the TD50 reads like this: (monkey, strain Rhesus [Macaca mulatta], both sexes, i.p., site: any site (literature study), lesion: malignant tumor, dosed 133 weeks, study length 133 weeks) 0.0121 mg/kg/day; (monkey, strain Rhesus [Macaca mulatta], both sexes, i.p., site: liver, lesion: hepatocellular carcinoma, dosed 133 weeks, study length 133 weeks) 0.0121 mg/kg/day; (rat, strain Fischer 344, females, by gavage, site: esophagus, lesion: several types, types named in the paper, dosed 30 weeks, study length 60 weeks) 0.505 mg/kg/day; (rat, strain Fischer 344, females, by gavage, site: liver, lesion: hepatocellular carcinoma, dosed 30 weeks, study length 60 weeks) 0.186 mg/kg/day; (rat, strain Fischer 344, females, by gavage, site: nasal cavity, lesion: carcinoma, dosed 30 weeks, study length 60 weeks) 0.186 mg/kg/day.

`Nc1ccc(N=Nc2ccc(-c3ccc(N=Nc4c(S(=O)(=O)O)cc5cc(S(=O)(=O)O)c(N=Nc6ccccc6)c(O)c5c4N)cc3)cc2)c(N)c1`: the TD50 reads like this: (mouse, strain ICR, both sexes, in drinking water, site: any site (literature study), lesion: several types, types named in the paper, dosed 57 weeks, study length 57 weeks) 32 mg/kg/day; (mouse, strain ICR, both sexes, in drinking water, site: liver, lesion: hepatoma, dosed 57 weeks, study length 57 weeks) 71.6 mg/kg/day; (mouse, strain ICR, both sexes, in drinking water, site: mammary gland, lesion: several types, types named in the paper, dosed 57 weeks, study length 57 weeks) 262 mg/kg/day; (rat, strain Fischer 344, females, in feed, site: any site (literature study), lesion: several types, types named in the paper, dosed 13 weeks, study length 13 weeks) 2.61 mg/kg/day; (rat, strain Fischer 344, females, in feed, site: liver, lesion: hepatocellular adenoma + hepatocellular carcinoma + neoplastic nodule, dosed 13 weeks, study length 13 weeks) 2.61 mg/kg/day; (rat, strain Fischer 344, females, in feed, site: liver, lesion: neoplastic nodule, dosed 13 weeks, study length 13 weeks) 2.61 mg/kg/day. In addition, the TD50 is 0.945 mg/kg/day (rat, strain Fischer 344, males, in feed, site: any site (literature study), lesion: several types, types named in the paper, dosed 13 weeks, study length 13 weeks); 0.945 mg/kg/day (rat, strain Fischer 344, males, in feed, site: liver, lesion: hepatocellular adenoma + hepatocellular carcinoma + neoplastic nodule, dosed 13 weeks, study length 13 weeks); 0.945 mg/kg/day (rat, strain Fischer 344, males, in feed, site: liver, lesion: hepatocellular carcinoma + neoplastic nodule, dosed 13 weeks, study length 13 weeks); 2.22 mg/kg/day (rat, strain Fischer 344, males, in feed, site: liver, lesion: hepatocellular carcinoma, dosed 13 weeks, study length 13 weeks).

In the case of `Cc1cc(O)c(C(C)(C)C)cc1Sc1cc(C(C)(C)C)c(O)cc1C`, the TD50 reads like this: (mouse, strain B6C3F1, females, in feed, site: any site (literature study), lesion: several types, types named in the paper, dosed 104 weeks, study length 104 weeks) 484 mg/kg/day (inactive); (mouse, strain B6C3F1, females, in feed, site: lung, lesion: alveolar/bronchiolar adenoma + alveolar/bronchiolar carcinoma, dosed 104 weeks, study length 104 weeks) 2020 mg/kg/day; (rat, strain Fischer 344, females, in feed, site: any site (literature study), lesion: several types, types named in the paper, dosed 104 weeks, study length 104 weeks) 196 mg/kg/day; (rat, strain Fischer 344, females, in feed, site: liver, lesion: hepatocellular adenoma + hepatoblastoma + hepatocellular carcinoma, dosed 104 weeks, study length 104 weeks) 3990 mg/kg/day; (rat, strain Fischer 344, females, in feed, site: thyroid gland, lesion: c-cell adenoma + c-cell adenoma, bilateral, dosed 104 weeks, study length 104 weeks) 361 mg/kg/day; (rat, strain Fischer 344, females, in feed, site: thyroid gland, lesion: c-cell adenoma + c-cell carcinoma + c-cell adenoma, bilateral, dosed 104 weeks, study length 104 weeks) 325 mg/kg/day. Further, the TD50 (rat, strain Fischer 344, females, in feed, site: uterus, lesion: endometrial stromal polyp + endometrial stromal sarcoma, dosed 104 weeks, study length 104 weeks) is 262 mg/kg/day (inactive); the TD50 (rat, strain Fischer 344, females, in feed, site: uterus, lesion: endometrial stromal polyp, dosed 104 weeks, study length 104 weeks) amounted to 286 mg/kg/day; the TD50 (rat, strain Fischer 344, males, in feed, site: any site (literature study), lesion: several types, types named in the paper, dosed 104 weeks, study length 104 weeks) was 449 mg/kg/day (inactive); the TD50 (rat, strain Fischer 344, males, in feed, site: liver, lesion: hepatocellular adenoma + hepatoblastoma + hepatocellular carcinoma, dosed 104 weeks, study length 104 weeks) amounted to 324 mg/kg/day. Further, where the note is “mouse, strain B6C3F1, males, in feed, site: any site (literature study), lesion: several types, types named in the paper, dosed 104 weeks, study length 104 weeks”, the carcinogen call was “negative (inactive)”.

For the molecule `CCCN(N=O)/C(N)=N/[N+](=O)[O-]`, the TD50 by setting is: (rat, strain Wistar, males, in drinking water, site: stomach, glandular, lesion: adenocarcinoma, dosed 52 weeks, study length 65 weeks) 2.85 mg/kg/day; (rat, strain Wistar, males, in drinking water, site: stomach, glandular, lesion: adenocarcinoma, dosed 52 weeks, study length 78 weeks) 2.27 mg/kg/day; (rat, strain Wistar, males, in drinking water, site: stomach, glandular, lesion: adenoma, dosed 34 weeks, study length 65 weeks) 1.9 mg/kg/day; (rat, strain Wistar, males, in drinking water, site: stomach, glandular, lesion: adenoma, dosed 52 weeks, study length 65 weeks) 0.919 mg/kg/day; (rat, strain Wistar, males, in drinking water, site: stomach, glandular, lesion: adenoma, dosed 52 weeks, study length 78 weeks) 2.27 mg/kg/day.

`Cn1cc(C(=O)[C@@H]2CCc3nc[nH]c3C2)c2ccccc21`: the carcinogen call was “negative (inactive)” (mouse, strain B6C3F1, females, by gavage, site: liver, lesion: hepatocellular adenoma, dosed 104 weeks, study length 104 weeks); “negative (inactive)” (mouse, strain B6C3F1, females, by gavage, site: lung, lesion: adenoma, dosed 104 weeks, study length 104 weeks); “negative (inactive)” (mouse, strain B6C3F1, females, by gavage, site: lung, lesion: carcinoma, dosed 104 weeks, study length 104 weeks); “negative (inactive)” (mouse, strain B6C3F1, males, by gavage, site: liver, lesion: hepatocellular adenoma, dosed 104 weeks, study length 104 weeks); “negative (inactive)” (mouse, strain B6C3F1, males, by gavage, site: liver, lesion: hepatocellular carcinoma, dosed 104 weeks, study length 104 weeks); “negative (inactive)” (mouse, strain B6C3F1, males, by gavage, site: lung, lesion: adenoma, dosed 104 weeks, study length 104 weeks). Also, the carcinogen call runs as follows: (mouse, strain B6C3F1, males, by gavage, site: lung, lesion: carcinoma, dosed 104 weeks, study length 104 weeks) “negative (inactive)”; (rat, strain Fischer 344, females, by gavage, site: liver, lesion: hepatocellular adenoma, dosed 104 weeks, study length 104 weeks) “negative (inactive)”; (rat, strain Fischer 344, males, by gavage, site: liver, lesion: hepatocellular adenoma, dosed 104 weeks, study length 104 weeks) “negative (inactive)”. For the setting “mouse, strain B6C3F1, females, by gavage, site: liver, lesion: hepatocellular carcinoma, dosed 104 weeks, study length 104 weeks”, the TD50 was 1040 mg/kg/day (inactive).

Consider `C=CCOc1ccc(CC(=O)O)cc1Cl`, for which the carcinogen call by setting is: (rat, strain Wistar, females, in feed, site: any site (literature study), lesion: several types, types named in the paper, dosed 104 weeks, study length 104 weeks) “negative (inactive)”; (rat, strain Wistar, females, in feed, site: liver, lesion: several types, types named in the paper, dosed 104 weeks, study length 104 weeks) “negative (inactive)”; (rat, strain Wistar, males, in feed, site: any site (literature study), lesion: several types, types named in the paper, dosed 104 weeks, study length 104 weeks) “negative (inactive)”; (rat, strain Wistar, males, in feed, site: liver, lesion: several types, types named in the paper, dosed 104 weeks, study length 104 weeks) “negative (inactive)”. In addition, for the setting “rat, strain Wistar, females, in feed, site: ovary, lesion: several types, types named in the paper, dosed 104 weeks, study length 104 weeks”, the TD50 is 390 mg/kg/day (inactive).

For orientation: TD50 means the dose at which the toxic effect under study appears in half of the subjects.

The record behind these values is PubChem BioAssay AID1745844 (Carcinogenic Potency Database (CPDB), 2022).
